IC50 data for 31 compounds are collected here from patent publication US20130303509A1, “NAMPT INHIBITORS” (AbbVie Inc., priority 2012, published 2013).

The test system of the assay is PC3 cells. Kind of assay: NAMPT Cell Proliferation Assay. In kind it is cell-based. The conditions noted are these: Homo sapiens, PC-3, 120 h, 5 days incubation, cell viability by Cell Titer Glo. In short, it runs like this: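 Seeded at 500 cells/well in RPMI with 10% heat-inactivated FBS and left to attach overnight at 37° C, 5% CO2. Compounds were added as 10-fold dilutions […] for 5 days, then viability was read by CellTiter-Glo. IC50s came from sigmoidal fits of percent inhibition.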
Background: In ATP-based viability assays light output follows the ATP content of the culture.
As to `O=C(Nc1ccc(O[C@@H]2CCN(C(=O)c3ccc(F)c(F)c3)C2)cc1)C1CN(c2ccnnc2)C1` [Example 451, N-(4-{[(3R)-1-(3,4-difluorobenzoyl)pyrrolidin-3-yl]oxy}phenyl)-1-(pyridazin-4-yl)azetidine-3-carboxamide], the 50% inhibitory concentration (IC50) – broadly, the point on the concentration scale where inhibition reaches its midpoint – came to 86.8 nM. Take `O=C(Nc1ccc(O[C@@H]2CCN(C(=O)Cc3cccc(F)c3)C2)cc1)C1CN(c2ccnnc2)C1` [Example 452, N-[4-({(3R)-1-[(3-fluorophenyl)acetyl]pyrrolidin-3-yl}oxy)phenyl]-1-(pyridazin-4-yl)azetidine-3-carboxamide]: 63.2 nM corresponded to half-maximal inhibition (IC50). Take `O=C(Nc1ccc(O[C@@H]2CCN(C(=O)c3cccc(C(F)(F)F)c3)C2)cc1)C1CN(c2ccnnc2)C1` [Example 453, 1-(pyridazin-4-yl)-N-[4-({(3R)-1-[3-(trifluoromethyl)benzoyl]pyrrolidin-3-yl}oxy)phenyl]azetidine-3-carboxamide]: the midpoint of inhibition, the IC50, lay at 105 nM.

Turning to `O=C(Nc1ccc(O[C@@H]2CCN(C(=O)Cc3ccc(F)cc3F)C2)cc1)C1CN(c2ccnnc2)C1` [Example 454, N-[4-({(3R)-1-[(2,4-difluorophenyl)acetyl]pyrrolidin-3-yl}oxy)phenyl]-1-(pyridazin-4-yl)azetidine-3-carboxamide], the IC50 was found to be 106 nM.

`O=C(Nc1ccc(O[C@@H]2CCN(C(=O)Cc3ccc(C(F)(F)F)cc3)C2)cc1)C1CN(c2ccnnc2)C1` [Example 455, 1-(pyridazin-4-yl)-N-(4-{[(3R)-1-{[4-(trifluoromethyl)phenyl]acetyl}pyrrolidin-3-yl]oxy}phenyl)azetidine-3-carboxamide] registered an IC50 of 458 nM. Compared with the last compound, the IC50 is about 4.3-fold higher. Turning to `O=C(Nc1ccc(O[C@@H]2CCN(C(=O)c3cscn3)C2)cc1)C1CN(c2ccnnc2)C1` [Example 456, 1-(pyridazin-4-yl)-N-(4-{[(3R)-1-(1,3-thiazol-4-ylcarbonyl)pyrrolidin-3-yl]oxy}phenyl)azetidine-3-carboxamide], inhibition was half-maximal at 39.5 nM (IC50).

For the compound `O=C(Nc1ccc(O[C@@H]2CCN(C(=O)C3CCCO3)C2)cc1)C1CN(c2ccnnc2)C1` (stereo partly drawn) [Example 457, 1-(pyridazin-4-yl)-N-(4-{[(3R)-1-(tetrahydrofuran-2-ylcarbonyl)pyrrolidin-3-yl]oxy}phenyl)azetidine-3-carboxamide], 142 nM corresponded to half-maximal inhibition (IC50).

`Cc1ccc(C(=O)N2CC[C@@H](Oc3ccc(NC(=O)C4CN(c5ccnnc5)C4)cc3)C2)s1` [Example 458, N-[4-({(3R)-1-[(5-methylthiophen-2-yl)carbonyl]pyrrolidin-3-yl}oxy)phenyl]-1-(pyridazin-4-yl)azetidine-3-carboxamide] registered an IC50 of 64.4 nM.

The compound `O=C(Nc1ccc(O[C@@H]2CCN(C(=O)Cc3ccccc3F)C2)cc1)C1CN(c2ccnnc2)C1` [Example 459, N-[4-({(3R)-1-[(2-fluorophenyl)acetyl]pyrrolidin-3-yl}oxy)phenyl]-1-(pyridazin-4-yl)azetidine-3-carboxamide] came in with an IC50 of 36.9 nM. In turn, `O=C(Nc1ccc(O[C@@H]2CCN(C(=O)C3CC3)C2)cc1)C1CN(c2ccnnc2)C1` [Example 460, N-(4-{[(3R)-1-(cyclopropylcarbonyl)pyrrolidin-3-yl]oxy}phenyl)-1-(pyridazin-4-yl)azetidine-3-carboxamide] returned an IC50 of 223 nM.

For `O=C(Nc1ccc(O[C@@H]2CCN(C(=O)C3CCOC3)C2)cc1)C1CN(c2ccnnc2)C1` (stereo partly drawn) [Example 461, 1-(pyridazin-4-yl)-N-(4-{[(3R)-1-(tetrahydrofuran-3-ylcarbonyl)pyrrolidin-3-yl]oxy}phenyl)azetidine-3-carboxamide], inhibition was half-maximal at 646 nM (IC50). Then `O=C(Nc1ccc(O[C@@H]2CCN(C(=O)c3cccc(OC(F)(F)F)c3)C2)cc1)C1CN(c2ccnnc2)C1` [Example 462, 1-(pyridazin-4-yl)-N-[4-({(3R)-1-[3-(trifluoromethoxy)benzoyl]pyrrolidin-3-yl}oxy)phenyl]azetidine-3-carboxamide], with 214 nM. In turn, `O=C(Nc1ccc(O[C@@H]2CCN(C(=O)c3ccccn3)C2)cc1)C1CN(c2ccnnc2)C1` [Example 463, 1-(pyridazin-4-yl)-N-(4-{[(3R)-1-(pyridin-2-ylcarbonyl)pyrrolidin-3-yl]oxy}phenyl)azetidine-3-carboxamide] yielded an IC50 of 70.9 nM. Consider `O=C(Nc1ccc(O[C@@H]2CCN(C(=O)c3cccc(Cl)c3)C2)cc1)C1CN(c2ccnnc2)C1` [Example 464, N-(4-{[(3R)-1-(3-chlorobenzoyl)pyrrolidin-3-yl]oxy}phenyl)-1-(pyridazin-4-yl)azetidine-3-carboxamide], for which the midpoint of inhibition, the IC50, lay at 65.9 nM. Turning to `O=C(Nc1ccc(O[C@@H]2CCN(C(=O)c3ccc(Cl)cc3)C2)cc1)C1CN(c2ccnnc2)C1` [Example 465, N-(4-{[(3R)-1-(4-chlorobenzoyl)pyrrolidin-3-yl]oxy}phenyl)-1-(pyridazin-4-yl)azetidine-3-carboxamide], the IC50 is 616 nM. The compound `CC(C)(C(=O)N1CC[C@@H](Oc2ccc(NC(=O)C3CN(c4ccnnc4)C3)cc2)C1)c1ccccc1` [Example 466, N-(4-{[(3R)-1-(2-methyl-2-phenylpropanoyl)pyrrolidin-3-yl]oxy}phenyl)-1-(pyridazin-4-yl)azetidine-3-carboxamide] registered an IC50 of 8.07 nM. With `O=C(Nc1ccc(O[C@@H]2CCN(C(=O)c3ccc(F)cc3F)C2)cc1)C1CN(c2ccnnc2)C1` [Example 467, N-(4-{[(3R)-1-(2,4-difluorobenzoyl)pyrrolidin-3-yl]oxy}phenyl)-1-(pyridazin-4-yl)azetidine-3-carboxamide], 15.6 nM corresponded to half-maximal inhibition (IC50). As to `COCC(=O)N1CC[C@@H](Oc2ccc(NC(=O)C3CN(c4ccnnc4)C3)cc2)C1` [Example 468, N-(4-{[(3R)-1-(methoxyacetyl)pyrrolidin-3-yl]oxy}phenyl)-1-(pyridazin-4-yl)azetidine-3-carboxamide], it took 730 nM to reach half-maximal inhibition (IC50). On to `O=C(Nc1ccc(O[C@@H]2CCN(C(=O)c3cccs3)C2)cc1)C1CN(c2ccnnc2)C1` [Example 469, 1-(pyridazin-4-yl)-N-(4-{[(3R)-1-(thiophen-2-ylcarbonyl)pyrrolidin-3-yl]oxy}phenyl)azetidine-3-carboxamide], for which the IC50 stood at 8.61 nM. As to `O=C(Nc1ccc(O[C@@H]2CCN(C(=O)Cc3cccc(C(F)(F)F)c3)C2)cc1)C1CN(c2ccnnc2)C1` [Example 470, 1-(pyridazin-4-yl)-N-(4-{[(3R)-1-{[3-(trifluoromethyl)phenyl]acetyl}pyrrolidin-3-yl]oxy}phenyl)azetidine-3-carboxamide], the IC50 is 715 nM. `CC(C)C(=O)N1CC[C@@H](Oc2ccc(NC(=O)C3CN(c4ccnnc4)C3)cc2)C1` [Example 471, N-(4-{[(3R)-1-(2-methylpropanoyl)pyrrolidin-3-yl]oxy}phenyl)-1-(pyridazin-4-yl)azetidine-3-carboxamide]: the 50% inhibitory concentration (IC50) came out at 72 nM. As for `O=C(Nc1ccc(O[C@@H]2CCN(C(=O)c3ccccc3F)C2)cc1)C1CN(c2ccnnc2)C1` [Example 472, N-(4-{[(3R)-1-(2-fluorobenzoyl)pyrrolidin-3-yl]oxy}phenyl)-1-(pyridazin-4-yl)azetidine-3-carboxamide], the figure is 6.56 nM; as for `CCC(C)(C)C(=O)N1CC[C@@H](Oc2ccc(NC(=O)C3CN(c4ccnnc4)C3)cc2)C1` [Example 473, N-(4-{[(3R)-1-(2,2-dimethylbutanoyl)pyrrolidin-3-yl]oxy}phenyl)-1-(pyridazin-4-yl)azetidine-3-carboxamide], 9.3 nM. Compound `O=C(Nc1ccc(O[C@@H]2CCN(C(=O)c3cc(F)cc(F)c3)C2)cc1)C1CN(c2ccnnc2)C1` [Example 474, N-(4-{[(3R)-1-(3,5-difluorobenzoyl)pyrrolidin-3-yl]oxy}phenyl)-1-(pyridazin-4-yl)azetidine-3-carboxamide] gave an IC50 of 68.5 nM. Compound `O=C(Nc1ccc(O[C@@H]2CCN(C(=O)c3ccc(C(F)(F)F)cc3)C2)cc1)C1CN(c2ccnnc2)C1` [Example 475, 1-(pyridazin-4-yl)-N-[4-({(3R)-1-[4-(trifluoromethyl)benzoyl]pyrrolidin-3-yl}oxy)phenyl]azetidine-3-carboxamide] showed an IC50 of 594 nM.

In the case of `O=C(Nc1ccc(O[C@@H]2CCN(C(=O)c3cccc(F)c3)C2)cc1)C1CN(c2ccnnc2)C1` [Example 476, N-(4-{[(3R)-1-(3-fluorobenzoyl)pyrrolidin-3-yl]oxy}phenyl)-1-(pyridazin-4-yl)azetidine-3-carboxamide], the IC50 came out at 17.4 nM. `O=C(Nc1ccc(O[C@@H]2CCN(C(=O)c3ccc(OC(F)(F)F)cc3)C2)cc1)C1CN(c2ccnnc2)C1` [Example 477, 1-(pyridazin-4-yl)-N-[4-({(3R)-1-[4-(trifluoromethoxy)benzoyl]pyrrolidin-3-yl}oxy)phenyl]azetidine-3-carboxamide] yielded an IC50 of 235 nM. In turn, `CC(C)CC(=O)N1CC[C@@H](Oc2ccc(NC(=O)C3CN(c4ccnnc4)C3)cc2)C1` [Example 478, N-(4-{[(3R)-1-(3-methylbutanoyl)pyrrolidin-3-yl]oxy}phenyl)-1-(pyridazin-4-yl)azetidine-3-carboxamide] yielded a 50% inhibitory concentration (IC50) of 14.3 nM.

As for `O=C(Nc1ccc(O[C@@H]2CCN(C(=O)CC(F)(F)F)C2)cc1)C1CN(c2ccnnc2)C1` [Example 479, 1-(pyridazin-4-yl)-N-(4-{[(3R)-1-(3,3,3-trifluoropropanoyl)pyrrolidin-3-yl]oxy}phenyl)azetidine-3-carboxamide], the IC50 stood at 68.9 nM. Against the preceding compound, the IC50 is about 4.8-fold higher. Consider `O=C(Nc1ccc(O[C@@H]2CCN(C(=O)C(F)(F)c3ccccc3)C2)cc1)C1CN(c2ccnnc2)C1` [Example 480, N-[4-({(3R)-1-[difluoro(phenyl)acetyl]pyrrolidin-3-yl}oxy)phenyl]-1-(pyridazin-4-yl)azetidine-3-carboxamide], for which inhibition was half-maximal at 4.24 nM (IC50). Consider `CC(C)(C)C(=O)N1CC[C@@H](Oc2ccc(NC(=O)C3CN(c4ccnnc4)C3)cc2)C1` [Example 481, N-(4-{[(3R)-1-(2,2-dimethylpropanoyl)pyrrolidin-3-yl]oxy}phenyl)-1-(pyridazin-4-yl)azetidine-3-carboxamide], for which the IC50 amounted to 12.1 nM.
